Assay results as given in patent US20240262819A1, “NOVEL COMPOUNDS HAVING INHIBITORY ACTIVITY AGAINST GLUCOSYLCERAMIDE SYNTHASE OR PHARMACEUTICALLY ACCEPTABLE SALT THEREOF, PROCESSES FOR PREPARING THE SAME, AND PHARMACEUTICAL COMPOSITIONS COMPRISING THE SAME” (YUHAN CORPORATION, priority 2021, published 2024).
Like-named read-outs stand apart in the source and are kept apart here.

Experiments:
[1] = tested on: GM1 production in Jurkat cells; test: cells; assay type: cell-based
[2] = target: glucosylceramide synthase (GCS) (Homo sapiens (Human), UniProt Q16739); test: Evaluation of inhibitory activities against GCS (A549 cell lysate, NBD C6-ceramide, HPLC); assay type: biochemical
Sequence of glucosylceramide synthase (GCS) (Q16739 whole entry): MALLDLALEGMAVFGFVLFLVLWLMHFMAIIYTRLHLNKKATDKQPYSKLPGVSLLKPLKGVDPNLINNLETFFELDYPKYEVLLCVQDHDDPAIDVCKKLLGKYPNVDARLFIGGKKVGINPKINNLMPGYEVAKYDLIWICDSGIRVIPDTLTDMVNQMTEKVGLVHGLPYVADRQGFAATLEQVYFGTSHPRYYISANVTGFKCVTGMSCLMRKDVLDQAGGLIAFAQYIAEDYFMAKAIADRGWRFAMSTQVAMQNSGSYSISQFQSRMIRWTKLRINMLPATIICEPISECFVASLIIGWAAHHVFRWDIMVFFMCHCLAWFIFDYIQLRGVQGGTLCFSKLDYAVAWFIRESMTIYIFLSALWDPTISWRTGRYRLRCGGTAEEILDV
Protocol: The inhibitory activities of the compounds of the present invention against GCS were evaluated, as follows, according to the method described in the known literature (Hayashi Y et al., A sensitive and reproducible assay to measure the activity of glucosylceramide synthase and lactosylceramide synthase using HPLC and fluorescent substrates, Analytical Biochemistry 345 (2005) 181-186). Ibiglustat, known as a GCS inhibitor, was used as a control.
After the cells attached to the culture dish were washed with phosphate buffered saline (PBS), the cells were scraped off with a cell scraper and then centrifuged (4000 rpm, 3 min, 4 °C) to collect the cells in a 50 ml tube. The cell pellets were suspended in a lysis buffer (50 mM HEPES, pH 7.3, containing 1× the protease/phosphatase inhibitor cocktail), lysed by sonication, and then the lysate was centrifuged (13000 rpm, 10 min, 4° C.). The obtained supernatant was used for the quantitative analysis of proteins. The amount of proteins was measured using the BCA protein assay kit, using bovine serum albumin as a standard.
Enzymatic reactions were initiated by sequentially adding the following reaction materials to a 96 deep-well plate. Thereafter, the enzymatic reactions were performed at 37° C. for 90 minutes.
The enzymatic reactions were stopped by adding 100 μl of chloroform/methanol (2:1, v/v). […] The lower layer (50 μl) was transferred to a new 96 deep-well plate and dried with a reduced concentrator.
Lipids were dissolved in 100 μl of isopropyl alcohol/n-hexane/H2O (55:44:1, v/v/v) and then transferred to a glass vial for HPLC (Agilent, 8004-HP-H/i3u). The sample (100 μl) was automatically loaded onto a normal-phase column (Intersil SIL 150A-5, 4.6×250 mm, GL Sciences, Japan) and then eluted at a flow rate of 2.0 ml/min with isopropyl alcohol/n-hexane/H2O (55:44:1, v/v/v). The fluorescence thereof was measured with a fluorescence detector (Agilent, 1260 FLD Spectra), using 470 nm and 530 nm as excitation and emission wavelengths, respectively.
Data analysis was performed by the following equations.
% Area (Sample)=Area (GlcCer)/[Area (Cer)+Area (GlcCer)]×100%
GCS activity=[Area (Sample)−Area (ibiglustat)]/[Area (DMSO)−Area (ibiglustat)]×100
The obtained % GCS activity data was analyzed with the software GraphPad Prism (Ver 5.01) to calculate the IC50 values.

[3] = % GCS activity, A549 cell lysate, 37° C. for 90 minutes, read-out: IC50

SMILES	IC50 ([1]; Homo sapiens, Jurkat, 72 h) [nM]	IC50 [2] [nM]	IC50 ([1]; read-out: IC50) [nM]	IC50 [2, 3] [nM]
CCCCc1ccc(-c2cc3c(cc2C)[C@H](NC(=O)O[C@@H]2CN4CCC2CC4)C(C)(C)C3)cc1 [Example 118, (S)-quinuclidin-3-yl((R)-5-(4-butylphenyl)-2,2,6-trimethyl-2,3-dihydro-1H-inden-1-yl)carbamate]	1.55	0.2		
Cc1cc2c(cc1-c1ccc(CC(C)C)cc1)CC(C)(C)[C@H]2NC(=O)O[C@@H]1CN2CCC1CC2 [Example 119, (S)-quinuclidin-3-yl((R)-5-(4-isobutylphenyl)-2,2,6-trimethyl-2,3-dihydro-1H-inden-1-yl)carbamate]	4.95	0.23		
CCOc1ccc(-c2cc3c(cc2C)[C@H](NC(=O)O[C@@H]2CN4CCC2CC4)C(C)(C)C3)cc1 [Example 120, (S)-quinuclidin-3-yl((R)-5-(4-ethoxyphenyl)-2,2,6-trimethyl-2,3-dihydro-1H-inden-1-yl)carbamate]	7.66	0.31		
CCCOc1ccc(-c2cc3c(cc2C)[C@H](NC(=O)O[C@@H]2CN4CCC2CC4)C(C)(C)C3)cc1 [Example 121, (S)-quinuclidin-3-yl((R)-2,2,6-trimethyl-5-(4-propoxyphenyl)-2,3-dihydro-1H-inden-1-yl)carbamate]	2.79	0.28		
Cc1cc2c(cc1-c1ccc(OC(C)C)cc1)CC(C)(C)[C@H]2NC(=O)O[C@@H]1CN2CCC1CC2 [Example 122, (S)-quinuclidin-3-yl((R)-5-(4-isopropoxyphenyl)-2,2,6-trimethyl-2,3-dihydro-1H-inden-1-yl)carbamate]	3.66	0.34		
CCCCOc1ccc(-c2cc3c(cc2C)[C@H](NC(=O)O[C@@H]2CN4CCC2CC4)C(C)(C)C3)cc1 [Example 123, (S)-quinuclidin-3-yl((R)-5-(4-butoxyphenyl)-2,2,6-trimethyl-2,3-dihydro-1H-inden-1-yl)carbamate]	1.26	0.24		
Cc1cc2c(cc1-c1ccc(OCC(C)C)cc1)CC(C)(C)[C@H]2NC(=O)O[C@@H]1CN2CCC1CC2 [Example 124, (S)-quinuclidin-3-yl((R)-5-(4-isobutoxyphenyl)-2,2,6-trimethyl-2,3-dihydro-1H-inden-1-yl)carbamate]	1.13	0.2		
Cc1cc2c(cc1-c1ccc(OC(C)C)c(Cl)c1)CC(C)(C)[C@H]2NC(=O)O[C@@H]1CN2CCC1CC2 [Example 125, (S)-quinuclidin-3-yl((R)-5-(3-chloro-4-isopropoxyphenyl)-2,2,6-trimethyl-2,3-dihydro-1H-inden-1-yl)carbamate]	10.8	2.17		
COc1ccc(-c2cc3c(cc2C)[C@H](NC(=O)O[C@@H]2CN4CCC2CC4)C(C)(C)C3)c(F)c1 [Example 126, (S)-quinuclidin-3-yl((R)-5-(2-fluoro-4-methoxyphenyl)-2,2,6-trimethyl-2,3-dihydro-1H-inden-1-yl)carbamate]	18	1.48		
CCOc1cc2c(cc1-c1ccc(CC)cc1)CC(C)(C)[C@H]2NC(=O)O[C@@H]1CN2CCC1CC2 [Example 127, (S)-quinuclidin-3-yl((R)-6-ethoxy-5-(4-ethylphenyl)-2,2-dimethyl-2,3-dihydro-1H-inden-1-yl)carbamate]	8.02	1.82		
CCCc1ccc(-c2cc3c(cc2OCC)[C@H](NC(=O)O[C@@H]2CN4CCC2CC4)C(C)(C)C3)cc1 [Example 128, (S)-quinuclidin-3-yl((R)-6-ethoxy-2,2-dimethyl-5-(4-propylphenyl)-2,3-dihydro-1H-inden-1-yl)carbamate]	6.49	1.8		
CCOc1cc2c(cc1-c1ccc(C(C)C)cc1)CC(C)(C)[C@H]2NC(=O)O[C@@H]1CN2CCC1CC2 [Example 129, (S)-quinuclidin-3-yl((R)-6-ethoxy-5-(4-isopropylphenyl)-2,2-dimethyl-2,3-dihydro-1H-inden-1-yl)carbamate]	8.11	2.31		
CCCCc1ccc(-c2cc3c(cc2OCC)[C@H](NC(=O)O[C@@H]2CN4CCC2CC4)C(C)(C)C3)cc1 [Example 130, (S)-quinuclidin-3-yl((R)-5-(4-butylphenyl)-6-ethoxy-2,2-dimethyl-2,3-dihydro-1H-inden-1-yl)carbamate]	1.53	0.75		
CCOc1cc2c(cc1-c1ccc(CC(C)C)cc1)CC(C)(C)[C@H]2NC(=O)O[C@@H]1CN2CCC1CC2 [Example 131, (S)-quinuclidin-3-yl((R)-6-ethoxy-5-(4-isobutylphenyl)-2,2-dimethyl-2,3-dihydro-1H-inden-1-yl)carbamate]	6.47	2.01		
CCOc1ccc(-c2cc3c(cc2OCC)[C@H](NC(=O)O[C@@H]2CN4CCC2CC4)C(C)(C)C3)cc1 [Example 132, (S)-quinuclidin-3-yl((R)-6-ethoxy-5-(4-ethoxyphenyl)-2,2-dimethyl-2,3-dihydro-1H-inden-1-yl)carbamate]	7.62	1.6		
CCCOc1ccc(-c2cc3c(cc2OCC)[C@H](NC(=O)O[C@@H]2CN4CCC2CC4)C(C)(C)C3)cc1 [Example 133, (S)-quinuclidin-3-yl((R)-6-ethoxy-2,2-dimethyl-5-(4-propoxyphenyl)-2,3-dihydro-1H-inden-1-yl) carbamate]			2.63	0.5
CCOc1cc2c(cc1-c1ccc(OC(C)C)cc1)CC(C)(C)[C@H]2NC(=O)O[C@@H]1CN2CCC1CC2 [Example 134, (S)-quinuclidin-3-yl((R)-6-ethoxy-5-(4-isopropoxyphenyl)-2,2-dimethyl-2,3-dihydro-1H-inden-1-yl)carbamate]	3.8	0.71		
CCCCOc1ccc(-c2cc3c(cc2OCC)[C@H](NC(=O)O[C@@H]2CN4CCC2CC4)C(C)(C)C3)cc1 [Example 135, (S)-quinuclidin-3-yl((R)-5-(4-butoxyphenyl)-6-ethoxy-2,2-dimethyl-2,3-dihydro-1H-inden-1-yl)carbamate]	1.46	0.51		
CCOc1cc2c(cc1-c1ccc(OCC(C)C)cc1)CC(C)(C)[C@H]2NC(=O)O[C@@H]1CN2CCC1CC2 [Example 136, (S)-quinuclidin-3-yl((R)-6-ethoxy-5-(4-isobutoxyphenyl)-2,2-dimethyl-2,3-dihydro-1H-inden-1-yl)carbamate]	0.87	0.41		
CCOc1cc2c(cc1-c1ccc(OC(C)C)c(Cl)c1)CC(C)(C)[C@H]2NC(=O)O[C@@H]1CN2CCC1CC2 [Example 137, (S)-quinuclidin-3-yl((R)-5-(3-chloro-4-isopropoxyphenyl)-6-ethoxy-2,2-dimethyl-2,3-dihydro-1H-inden-1-yl)carbamate]	12.8	3.04		
CCOc1cc2c(cc1-c1ccc(OC)cc1F)CC(C)(C)[C@H]2NC(=O)O[C@@H]1CN2CCC1CC2 [Example 138, (S)-quinuclidin-3-yl((R)-6-ethoxy-5-(2-fluoro-4-methoxyphenyl)-2,2-dimethyl-2,3-dihydro-1H-inden-1-yl)carbamate]	28	1.87		
CCc1ccc(-c2ccc3c(c2)CCC(C)(C)[C@H]3NC(=O)O[C@@H]2CN3CCC2CC3)cc1 [Example 139, (S)-quinuclidin-3-yl((R)-6-(4-ethylphenyl)-2,2-dimethyl-1,2,3,4-tetrahydronaphthalen-1-yl)carbamate]	3.01	0.26		
CCCc1ccc(-c2ccc3c(c2)CCC(C)(C)[C@H]3NC(=O)O[C@@H]2CN3CCC2CC3)cc1 [Example 140, (S)-quinuclidin-3-yl((R)-2,2-dimethyl-6-(4-propylphenyl)-1,2,3,4-tetrahydronaphthalen-1-yl)carbamate]	2.5	0.29		
CC(C)c1ccc(-c2ccc3c(c2)CCC(C)(C)[C@H]3NC(=O)O[C@@H]2CN3CCC2CC3)cc1 [Example 141, (S)-quinuclidin-3-yl((R)-6-(4-isopropylphenyl)-2,2-dimethyl-1,2,3,4-tetrahydronaphthalen-1-yl)carbamate]	2.77	0.43		
CCCCc1ccc(-c2ccc3c(c2)CCC(C)(C)[C@H]3NC(=O)O[C@@H]2CN3CCC2CC3)cc1 [Example 142, (S)-quinuclidin-3-yl((R)-6-(4-butylphenyl)-2,2-dimethyl-1,2,3,4-tetrahydronaphthalen-1-yl) carbamate]			1.4	0.23
CCOc1ccc(-c2ccc3c(c2)CCC(C)(C)[C@H]3NC(=O)O[C@@H]2CN3CCC2CC3)cc1 [Example 143, (S)-quinuclidin-3-yl((R)-6-(4-ethoxyphenyl)-2,2-dimethyl-1,2,3,4-tetrahydronaphthalen-1-yl) carbamate]			4.2	0.33
